{"source": "paper PMC13041344", "about": "(Antimicrobial Agents and Chemotherapy, 2026)", "origin": "cited, not measured here", "conditions": "humans; 2 g q8h as a 3-h infusion"}
{"smiles": "C[C@@H](O)[C@H]1C(=O)N2C(C(=O)O)=C(S[C@@H]3CN[C@H](C(=O)N(C)C)C3)[C@H](C)[C@H]12", "note": "[MEM, meropenem]", "values": [{"measurement": "Cmax", "value": 46000, "unit": "ng/mL"}]}
